{
  "source": "patent US9737493B2",
  "about": "“Compositions and methods for modulating DNMT1 inhibitor activity” (University of Louisville Research Foundation, Inc., priority 2012, dated 2017)",
  "key": {"DU145 cells": {"test_system": "DU145 cells", "experiment": "MTT cell proliferation assay", "format": "cell-based", "details": "Homo sapiens, DU-145; DU145, 72 h", "experimental": "(§1) Cell Proliferation Assays. The antiproliferative activity of XB05 was tested using a previously published 3-(4,5-dimethylthiazol-2-yl)-2,5-diphenyltetrazolium bromide (MTT) assay protocol (Girvan et al., “AGRO100 inhibits activation of nuclear factor-kappaB (NF-kappaB) by forming a complex with NF-kappaB essential modulator (NEMO) and nucleolin” Molecular Cancer Therapeutics (2006) Vol. 5, No. 7, pp. 1790-1799). Briefly, cells were seeded in quadruplicate wells in 96-well plates and allowed to adhere overnight. […] Plates were incubated with XB05 for 72 h, during which the cell culture medium was not changed. Cell viability was determined and the background corresponding to medium alone (no cells) was subtracted. Data were analyzed as described in the Brief Description of the Drawings.\n(§2) XB05 has Cancer-Selective Antiproliferative Activity. XB05 was tested to determine its antiproliferative activity in a variety of human cell lines that are derived from malignant tissues or from non-malignant (immortalized but not transformed) cells and listed in FIG. 1B. As described in Materials and Methods, cells were treated with varying concentrations of XB05 for 72 h and evaluated using the MTT cell proliferation assay."}, "MDA-MB-231 cells": {"test_system": "MDA-MB-231 cells", "experiment": "MTT cell proliferation assay", "format": "cell-based", "details": "Homo sapiens, MDA-MB-231, 72 h", "experimental": "as §1, §2"}, "A549 cells [1]": {"test_system": "A549 cells", "experiment": "Flow cytometric detection of γ-H2AX", "format": "cell-based, human", "details": "A549, 2 μM, 24 h", "experimental": "(§3) FIG. 11: XB05 Induces DNA Damage in Malignant Cells. (A) Alkaline comet assays for detection of DNA damage for cells treated as indicated for 72 h. TBHP was a positive control for oxidative DNA damage. Decreased DNA fluorescence in nucleoid comet heads (arrows) and increased smearing of DNA into comet tails (asterisks) is indicated. Scale bar, 400 μm. Data shown are representative of at least two individual experiments for each cell line. (B) Western blot analysis for γ-H2AX and GAPDH (loading control) in whole cell extracts from cells treated with vehicle, UV irradiation (800 μJ, positive control for DSBs), or XB05 (1 μM for U937, 2 μM for A549) after 24 h. Images shown are representative of three individual experiments in each cell line. (C) Flow cytometric detection of γ-H2AX in cells treated as described in part B. Bar graph represents mean+/−SEM for 3 individual experiments in each cell line. Statistical comparison indicated significant differences between vehicle and XB05-treated groups in both cell lines (*p≦0.05).\nFlow Cytometric Assays. Analyses were performed using a FACScalibur flow cytometer (BD Biosciences, Mountain View, Calif.) and FlowJo software (Tree Star, Inc., Ashland, Oreg.). […] Cells were then washed twice with PBS, re-suspended at a density of 1×10^6 cells/mL in PBS and analyzed by flow cytometry."}, "recombinant human DNMT1": {"target": "recombinant human DNMT1 (Homo sapiens, UniProt P26358)", "sequence (P26358 whole entry)": "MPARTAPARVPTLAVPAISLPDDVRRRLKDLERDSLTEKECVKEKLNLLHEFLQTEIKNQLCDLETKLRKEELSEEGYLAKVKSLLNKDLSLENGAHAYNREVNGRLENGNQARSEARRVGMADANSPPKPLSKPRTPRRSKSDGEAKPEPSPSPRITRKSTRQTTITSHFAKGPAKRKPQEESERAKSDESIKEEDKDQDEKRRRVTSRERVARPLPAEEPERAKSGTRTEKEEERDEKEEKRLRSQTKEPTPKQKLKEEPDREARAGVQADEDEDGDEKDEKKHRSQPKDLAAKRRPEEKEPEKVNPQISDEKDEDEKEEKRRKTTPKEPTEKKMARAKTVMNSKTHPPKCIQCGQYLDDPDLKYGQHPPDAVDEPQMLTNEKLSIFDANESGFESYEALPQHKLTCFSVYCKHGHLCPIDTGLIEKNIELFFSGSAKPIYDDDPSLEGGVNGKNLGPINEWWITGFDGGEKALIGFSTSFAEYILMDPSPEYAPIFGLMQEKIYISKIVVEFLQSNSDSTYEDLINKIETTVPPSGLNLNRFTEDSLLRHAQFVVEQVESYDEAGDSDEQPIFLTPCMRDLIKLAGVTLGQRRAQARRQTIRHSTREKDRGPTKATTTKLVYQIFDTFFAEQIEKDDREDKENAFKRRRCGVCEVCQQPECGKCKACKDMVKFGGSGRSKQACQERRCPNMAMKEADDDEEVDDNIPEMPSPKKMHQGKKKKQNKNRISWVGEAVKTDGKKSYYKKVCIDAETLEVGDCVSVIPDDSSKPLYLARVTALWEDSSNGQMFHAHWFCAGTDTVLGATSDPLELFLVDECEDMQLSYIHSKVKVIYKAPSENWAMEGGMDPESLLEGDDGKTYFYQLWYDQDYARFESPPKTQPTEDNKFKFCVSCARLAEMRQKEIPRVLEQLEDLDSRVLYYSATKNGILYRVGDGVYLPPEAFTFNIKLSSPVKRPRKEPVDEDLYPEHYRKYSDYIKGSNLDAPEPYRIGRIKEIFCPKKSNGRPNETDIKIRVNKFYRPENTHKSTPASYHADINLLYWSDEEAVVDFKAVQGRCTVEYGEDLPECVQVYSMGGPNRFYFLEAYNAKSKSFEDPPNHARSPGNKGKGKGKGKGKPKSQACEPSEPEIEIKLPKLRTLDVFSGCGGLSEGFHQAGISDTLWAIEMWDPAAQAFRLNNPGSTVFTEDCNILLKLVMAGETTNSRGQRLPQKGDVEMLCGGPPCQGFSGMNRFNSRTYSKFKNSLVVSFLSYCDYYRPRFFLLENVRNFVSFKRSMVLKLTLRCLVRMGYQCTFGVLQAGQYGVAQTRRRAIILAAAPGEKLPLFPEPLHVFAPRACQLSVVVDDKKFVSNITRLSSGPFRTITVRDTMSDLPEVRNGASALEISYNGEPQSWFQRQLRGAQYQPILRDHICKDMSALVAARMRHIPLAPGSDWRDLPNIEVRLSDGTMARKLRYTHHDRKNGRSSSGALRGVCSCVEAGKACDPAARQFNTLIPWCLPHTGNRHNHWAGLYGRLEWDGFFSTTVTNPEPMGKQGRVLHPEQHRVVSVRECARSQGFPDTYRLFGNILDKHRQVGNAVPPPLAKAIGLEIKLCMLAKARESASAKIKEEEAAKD", "experiment": "DNMT1 activity assay", "format": "biochemical", "details": "recombinant human DNMT1 or nuclear extracts from treated cells", "source_text": "The assays use recombinant Human DNMT1 (FIG. 19A) or nuclear extracts prepared from cells treated with XB05 (BX11) or 5-Aza (5-azacytidine) (FIG. 19B)."}, "A549 cells [2]": {"test_system": "A549 cells", "experiment": "MitoSOX Red mitochondrial superoxide, flow cytometry", "format": "cell-based, human", "details": "A549, 2 μM, 8 h", "experimental": "(§4) FIG. 7: XB05 Induces ROS. (A) Cells were treated with either vehicle, tert-butyl hydrogen peroxide (TBHP, 100 μM, 3 h) or XB05 (8 h with 1 μM for U937 and Hs27, or 2 μM for A549), then stained with carboxy-H2DCFDA and PI for analysis by flow cytometry. Histograms illustrate representative data and bar graphs show the increase (over vehicle control) in the percentage of PI-negative (viable) cells with positive DCF fluorescence in each sample. Bars represent the mean+/−SEM from three independent experiments. […] (B) Cells were treated with XB05 as described in part A. As a positive control for superoxide production, cells were treated with Antimycin A (10 μM) for 1 h. Cells were harvested and subjected to MitoSOX™ Red staining for analysis by flow cytometry as described in Methods. Histograms illustrate representative data and bar graphs show the mean+/−SEM for three independent experiments.\n(§5) Flow Cytometric Assays. Analyses were performed using a FACScalibur flow cytometer (BD Biosciences, Mountain View, Calif.) and FlowJo software (Tree Star, Inc., Ashland, Oreg.). Cells were treated as indicated in the figures and in the Brief Description of the Drawings. Cells were harvested by using TrypLE Cell Dissociation Reagent (Life Technologies). For cell death analyses, cells (adherent and detached cells) were stained with annexin-V-FITC and propidium iodide (PI) using the Apoptosis Detection Kit (BD Biosciences, San Jose, Calif.), according to the manufacturer's instructions. For cell-cycle distribution, cells were fixed, and stained with PI using the Cycle Test Plus kit (Becton Dickinson, Franklin Lakes, N.J.). For detection of γ-H2AX, cells were washed with PBS and fixed in 4% paraformaldehyde in PBS for 10 min at 37° C. Cells were then permeabilized in 90% methanol for 30 min on ice, blocked in 2% BSA (w/v in PBS) for 1 h, and incubated with γ-H2AX antibody or rabbit IgG isotype control (Santa Cruz, sc-2027) (0.3 μg/mL in 1% BSA) for 1 h. […] Cells were then washed twice with PBS, re-suspended at a density of 1×10^6 cells/mL in PBS and analyzed by flow cytometry."}, "Hs27 cells [3]": {"test_system": "Hs27 cells", "experiment": "MitoSOX Red mitochondrial superoxide, flow cytometry", "format": "cell-based, human", "details": "Hs27, 1 μM, 8 h", "experimental": "as §4, §5"}, "U937 cells [4]": {"test_system": "U937 cells", "experiment": "MitoSOX Red mitochondrial superoxide, flow cytometry", "format": "cell-based, human", "details": "U937, 1 μM, 8 h", "experimental": "as §4, §5"}, "A549 cells [5]": {"test_system": "A549 cells", "experiment": "Alkaline comet assay", "format": "cell-based, human", "details": "A549, 72 h", "experimental": "as §3\n(§6) Comet Assays. Cells were washed once with ice cold PBS, harvested as described and re-suspended at 1×10^5 cells/mL in PBS. As a positive control, cells were incubated with 100 μM tert-butyl hydrogen peroxide (TBHP) for 30 mins (U937, A549) or 1 h (Hs27) at 4° C. prior to harvesting. Comet assays were performed using the CometAssay Kit (Trevigen, Gaithersburg, Md.) according to the manufacturer's instructions. Cells were visualized and digital images captured on an EVOSfI Digital Fluorescent Microscope equipped with a fluorescein light cube."}, "Hs27 cells [6]": {"test_system": "Hs27 cells", "experiment": "Alkaline comet assay", "format": "cell-based, human", "details": "Hs27, 72 h", "experimental": "as §3, §6"}, "U937 cells [7]": {"test_system": "U937 cells", "experiment": "Alkaline comet assay", "format": "cell-based, human", "details": "U937, 72 h", "experimental": "as §3, §6"}},
  "data": [
    {"molecule": "CCCCCC(O)C#CC(F)(F)Br", "note": "(stereo not shown) [XB05]", "values": [
      {"measurement": "GI50", "setting": "DU145 cells", "value": "< 500", "unit": "nM"},
      {"measurement": "GI50", "setting": "MDA-MB-231 cells", "value": "< 500", "unit": "nM"},
      {"measurement": "increase in γ-H2AX staining compared to vehicle-treated controls", "setting": "A549 cells [1]", "value": 2.9, "unit": "fold"},
      {"measurement": "effect on DNMT1 activity", "setting": "recombinant human DNMT1", "value": "inhibitory effects"},
      {"measurement": "MitoSOX Red fluorescence vs vehicle", "setting": "A549 cells [2]", "value": "increase in MitoSOX™ Red fluorescence"},
      {"measurement": "MitoSOX Red fluorescence vs vehicle", "setting": "Hs27 cells [3]", "value": "not in Hs27 non-malignant fibroblasts"},
      {"measurement": "MitoSOX Red fluorescence vs vehicle", "setting": "U937 cells [4]", "value": "increase in MitoSOX™ Red fluorescence"},
      {"measurement": "DNA damage (comet tails)", "setting": "A549 cells [5]", "value": "comet tails"},
      {"measurement": "DNA damage (comet tails)", "setting": "Hs27 cells [6]", "value": "no evidence of DNA damage"},
      {"measurement": "DNA damage (comet tails)", "setting": "U937 cells [7]", "value": "comet tails"}
    ]}
  ]
}
